# Assay results as given in US20180371551A1, “MAT2A INHIBITORS FOR TREATING MTAP NULL CANCER” (Agios Pharmaceuticals, Inc., priority 2015, published 2018).
# Assays:
# [1] = molecular target: T1, PRMT5 (Homo sapiens, UniProt O14744); assay: N-methyltransferase in vitro activity assay; type: biochemical
# T1 construct: purchased Eurofins CEREP Panlabs
# Method: MTA has been reported to inhibit activity of protein methyltransferases (Enouf et al., 1979). To test this notion directly, we performed an in vitro biochemical screen assessing enzyme activity of 33 different N-methyltransferases following treatment with 10 μM and 100 μM MTA (FIG. 4A). […] Next, we analyzed the MTA Ki for PRMT5, PRMT4, and a diverse subset of methyltransferases (FIG. 4C). In vitro screening of methyltransferase inhibition by MTA, as well as SAM Km measurements, was conducted using a panel of methyltransferase assays at Eurofins CEREP Panlabs.
# [2] = system: HCT116 MTAP wt vs. HCT116 MTAP−/− cells; assay: EPZ015666 dose response, growth of HCT116 isogenic pair; type: cell-based; conditions: 5 days, titrated from 20 μM top dose
# Excerpt: (§1) FIGS. 2A-F. PRMT5 is selectively essential in MTAP-null cells upon genetic ablation but not pharmacologic targeting. Immunoblot analysis of the indicated proteins in HCT116 MTAP^−/− and HCT116 MTAP wt cells stably expressing PRMT5 shRNA and p-LVX empty vector control (EV). (B) PRMT5 is selectively essential in MTAP-null cells in vitro. Percent growth of HCT116 wt and HCT116 MTAP^−/− cells upon PRMT5 knockdown (+dox), with or without PRMT5 wt or R368A mutant rescue, versus no knockdown (no dox) control in a 10-day soft agar colony growth assay. Colonies were stained with crystal violet and then quantified using Li-Cor (mean±SD, n=3). (C) Immunoblot analysis of the indicated proteins in HCT116 MTAP^−/− and HCT116 MTAP wt cells stably expressing PRMT5 shRNA and shRNA-resistant PRMT5 wt cDNA or PRMT5 R368A catalytically-dead mutant cDNA. (D) Immunoblot analysis of symmetric di-methylarginine marks in HCT116 MTAP^−/− and HCT116 MTAP wt cells stably expressing PRMT5 shRNA and p-LVX empty vector control (EV), or PRMT5 shRNA and shRNA-resistant PRMT5 wt cDNA or PRMT5 R368A catalytically-dead mutant cDNA. (E) Dose response analysis with EPZ015666 titrated from 20 μM top dose in HCT116 MTAP wt vs. HCT116 MTAP^−/− cells. Cells were treated with EPZ015666 for 5 days and their response to the compound is measured as fold growth of treated cells vs. untreated control (mean±SD, n=3). […]
# [3] = system: PRMT5-dependent di-methylarginine marks in HCT116 isogenic pair; assay: Immunoblot of PRMT5-dependent di-methylarginine marks; type: cell-based; conditions: MTAP−/− and wt HCT116 cells, 5 days
# Excerpt: as §1
# T1 sequence (O14744 whole entry): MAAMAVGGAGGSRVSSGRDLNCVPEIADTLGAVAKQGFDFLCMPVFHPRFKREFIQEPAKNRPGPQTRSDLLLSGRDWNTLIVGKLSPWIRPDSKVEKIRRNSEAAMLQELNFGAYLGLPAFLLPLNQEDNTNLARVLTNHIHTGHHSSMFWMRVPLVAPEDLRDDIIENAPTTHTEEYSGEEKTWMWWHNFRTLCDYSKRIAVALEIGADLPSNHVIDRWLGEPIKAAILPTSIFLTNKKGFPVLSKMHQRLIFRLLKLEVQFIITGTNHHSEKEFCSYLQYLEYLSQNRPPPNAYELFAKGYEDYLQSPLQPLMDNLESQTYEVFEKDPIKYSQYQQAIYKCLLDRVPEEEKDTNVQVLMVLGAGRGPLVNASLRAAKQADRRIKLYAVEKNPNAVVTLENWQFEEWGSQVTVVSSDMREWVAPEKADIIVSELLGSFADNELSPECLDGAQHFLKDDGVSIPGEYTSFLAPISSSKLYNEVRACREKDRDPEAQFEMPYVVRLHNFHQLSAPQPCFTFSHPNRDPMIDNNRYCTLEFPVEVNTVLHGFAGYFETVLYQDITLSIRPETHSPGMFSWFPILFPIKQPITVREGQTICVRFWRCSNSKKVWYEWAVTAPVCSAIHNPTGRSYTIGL
# T1 sequence (Q9BQA1 whole entry partner): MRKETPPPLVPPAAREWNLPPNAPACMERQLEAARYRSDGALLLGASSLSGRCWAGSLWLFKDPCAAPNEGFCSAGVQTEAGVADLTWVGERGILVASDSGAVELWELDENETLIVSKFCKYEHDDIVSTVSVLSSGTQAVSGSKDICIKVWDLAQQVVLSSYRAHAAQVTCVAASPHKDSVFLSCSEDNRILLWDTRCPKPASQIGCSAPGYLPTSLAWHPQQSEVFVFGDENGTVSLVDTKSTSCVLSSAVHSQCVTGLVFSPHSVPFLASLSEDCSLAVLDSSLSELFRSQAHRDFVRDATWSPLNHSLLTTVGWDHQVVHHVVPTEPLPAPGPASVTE
"IC50 ([1]; biochemical assay, read-out: PRMT5 IC50 for MTA) [µM]",Ki ([1]; read-out: MTA Ki for PRMT5) [nM],Structure (SMILES),MTAP selectivity of growth inhibition [2],MTAP selectivity of growth inhibition ([2]; listed as EPZ-015666),PRMT5 activity inhibition (PRMT5-dependent di-methylarginine marks in total cell lysates) [3]
3,460,"CSC[C@H]1O[C@@H](n2cnc3c(N)ncnc32)[C@H](O)[C@@H]1O [MTA, methylthioadenosine]",–,–,–
–,–,O=C(NC[C@H](O)CN1CCc2ccccc2C1)c1cc(NC2COC2)ncn1 [EPZ015666],not selective for the MTAP-deficient genetic background,did not lead to selective growth inhibition in MTAP-null cells,equal degree of PRMT5 activity inhibition
